Molecular target: T1, SOS1 binding to KRAS G12C (Homo sapiens, UniProt Q07889)
T1 construct: consisting of amino acid residues 564 to 1049 which are the catalytic domain; purchased Reaction Biology Corporation MSC-11-502 (SOS1-Strep); MSC-11-538 (KRAS G12C)
T1 sequence (Q07889 564-1049): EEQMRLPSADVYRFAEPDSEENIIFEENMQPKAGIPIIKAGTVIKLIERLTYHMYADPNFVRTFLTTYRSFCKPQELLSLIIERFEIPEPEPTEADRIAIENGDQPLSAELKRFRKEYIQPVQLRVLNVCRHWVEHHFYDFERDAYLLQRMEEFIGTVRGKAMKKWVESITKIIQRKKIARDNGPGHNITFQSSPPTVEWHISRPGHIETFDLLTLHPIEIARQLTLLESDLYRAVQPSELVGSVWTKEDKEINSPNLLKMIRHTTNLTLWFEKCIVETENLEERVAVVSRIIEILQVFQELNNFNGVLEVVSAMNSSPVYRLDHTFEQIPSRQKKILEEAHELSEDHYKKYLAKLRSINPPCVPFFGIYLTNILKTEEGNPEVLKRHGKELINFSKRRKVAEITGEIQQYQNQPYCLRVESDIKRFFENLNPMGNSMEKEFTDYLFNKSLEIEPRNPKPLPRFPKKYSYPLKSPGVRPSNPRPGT
Assay: SOS1 GTP substitution inhibition test (HTRF/TR-FRET, KRAS G12C-SOS1 binding inhibitory ability)
Type: biochemical
Details: HTRF, GST-KRAS G12C (2-169), SOS1-Strep (564-1049), 1.6, 8, 40, 200, 1,000 nM

Row | SMILES | IC50 [nM]
1 | COc1cc2c(N[C@H](C)c3cc(N)cc(-c4cncs4)c3)nc(C)nc2cc1C(=O)N1CCOCC1 [Example 30, (R)-(4-((1-(3-amino-5-(thiazole-5-yl)phenyl)ethyl)amino)-6-methoxy-2-methylquinazolin-7-yl)(morpholino)methanone] | 50 to 100
2 | CNCc1ccccc1-c1csc(C(C)Nc2nc(C)nc3cc(C(=O)N4CCOCC4)c(OC)cc23)c1 (stereo not shown) [Example 2, (6-methoxy-2-methyl-4-((1-(4-(2-((methylamino)methyl)phenyl)thiophen-2-yl)ethyl)amino)quinazoline-7-yl)(morpholino)methanone] | 50 to 100
3 | CCNc1cc([C@@H](C)Nc2nc(C)nc3cc(C(=O)N4CCOCC4)c(OC)cc23)cc(C(F)(F)F)c1 [Example 31, (R)-(4-((1-(3-(ethylamino)-5-(trifluoromethyl)phenyl)ethyl)amino)-6-methoxy-2-methylquinazolin-7-yl)(morpholino)methanone] | 50 to 100
4 | CNc1cc2c(N[C@H](C)c3cc(C)cc(N)c3)nc(C)nc2cc1C(=O)N1CCOCC1 [Example 65, (R)-(4-((1-(3-amino-5-methylphenyl)ethyl)amino)-2-methyl-6-(methylamino)quinazolin-7-yl)(morpholino)methanone] | 50 to 100

Further lines, results first:

Row | IC50 [nM] | SMILES
5 | 50 to 100 | Cc1nc(N[C@H](C)c2cc(N)cc(C(F)(F)F)c2)c2cc(N(C)C)c(C(=O)N3CCOCC3)cc2n1 [Example 41, (R)-(4-((1-(3-amino-5-(trifluoromethyl)phenyl)ethyl)amino)-6-(dimethylamino)-2-methylquinazoline-7-yl)(morpholino)methanone]
6 | ≤ 50 | CNc1cc2c(N[C@H](C)c3cc(N)cc(C(F)(F)F)c3)nc(C)nc2cc1C(=O)N1CCNCC1 [Example 61, (R)-(4-((1-(3-amino-5-(trifluoromethyl)phenyl)ethyl)amino)-2-methyl-6-(methylamino)quinazoline-7-yl)(piperazine-1-yl)methanone]
7 | ≤ 50 | CNc1cc2c(N[C@H](C)c3cc(N)cc(C(F)(F)F)c3)nc(C)nc2cc1C(=O)N1CCSC1 [Example 53, (R)-(4-((1-(3-amino-5-(trifluoromethyl)phenyl)ethyl)amino)-2-methyl-6-(methylamino)quinazoline-7-yl)(thiazolidine-3-yl)methanone]

Source: patent US20240067613A1, “NOVEL QUINAZOLINE DERIVATIVES AS SOS1 INHIBITORS AND USE THEREOF” (HANMI PHARMACEUTICAL CO., LTD., priority 2020, published 2024)
